In BindingDB's records for patent US20240425524 (Merck Sharp & Dohme, 2024):

Molecular target: T1, Receptor-interacting serine/threonine-protein kinase 1 (Homo sapiens, UniProt Q13546)
T1 sequence (Q13546 whole entry): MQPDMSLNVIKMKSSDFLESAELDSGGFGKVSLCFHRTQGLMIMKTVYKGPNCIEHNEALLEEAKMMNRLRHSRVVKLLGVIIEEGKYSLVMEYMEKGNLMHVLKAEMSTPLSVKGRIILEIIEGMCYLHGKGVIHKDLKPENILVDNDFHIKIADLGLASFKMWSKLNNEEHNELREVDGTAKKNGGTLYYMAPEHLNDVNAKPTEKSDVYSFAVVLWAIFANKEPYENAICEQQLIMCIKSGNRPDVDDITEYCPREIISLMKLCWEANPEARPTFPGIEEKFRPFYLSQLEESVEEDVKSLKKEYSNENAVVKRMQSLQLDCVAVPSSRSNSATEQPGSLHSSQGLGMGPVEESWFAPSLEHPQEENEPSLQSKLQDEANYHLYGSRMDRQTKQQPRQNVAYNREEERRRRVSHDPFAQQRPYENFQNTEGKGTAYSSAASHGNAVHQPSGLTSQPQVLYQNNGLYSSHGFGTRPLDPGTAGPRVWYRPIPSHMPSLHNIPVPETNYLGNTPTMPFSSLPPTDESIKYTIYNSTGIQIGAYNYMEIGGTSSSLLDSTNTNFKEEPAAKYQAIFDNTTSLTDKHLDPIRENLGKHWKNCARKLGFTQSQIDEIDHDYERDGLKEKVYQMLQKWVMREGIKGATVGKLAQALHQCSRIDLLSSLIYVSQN
Test: RIPK1-ADP-Glo Enzymatic Assay
Method: In this assay, the potency (EC50) of each compound was determined from a ten-point (1:3 serial dilution: top compound concentration of 100000 nM) titration curve using the following outlined procedure. To each well of a white ProxiPlus 384 well-plate, 30 nL of compound (1% DMSO in final assay volume of 3 μL) was dispensed, followed by the addition of 2 μL of 1x assay buffer (25 mM Hepes 7.3, 20 mM MgCl2, 50 mM NaCl, 1 mM DTT, 0.005% Tween20, and 0.02% BSA) containing 37.5 nM of GST-RIPK1 (recombinant GST-RIPK1 kinase domain (residues 1-327) enzyme produced from baculovirus-transfected Sf21 cells: MW=62 kDa). Plates were placed in an ambient temperature humidified chamber for a 30 minutes pre-incubation with compound. Subsequently, each reaction was initiated by the addition of 1 μL 1× assay buffer containing 900 μM ATP and […]. The final reaction in each well of 3 μL consists of 25 nM of GST-RIPK1, 300 µM ATP, and 3 μM dephosphorylated-MBP. Kinase reactions were allowed to proceed for 150 minutes prior to adding ADP-Glo reagents per Promega's outlined kit protocol. Dose-response curves were generated by plotting percent effect (% product conversion: Y-axis) vs. Logio compound concentrations (X-axis).

Structure (SMILES) | EC50 [nM]
O=C1N2[C@H](c3cc(F)cc(F)c3)CCN2CC12CCN(c1cc(Cl)c(F)cn1)CC2 [US20240425524, Example 1.10] | 10
Cc1csc2ncnc(N3CCC4(CC3)CN3CC[C@@H](c5cc(F)cc(F)c5)N3C4=O)c12 [US20240425524, Example 1.15] | 17
